Reference: ChEMBL document CHEMBL1649194, “Pharmacokinetics of intracameral voriconazole injection” (Antimicrob Agents Chemother, 2009)

How the values were obtained:
[1] = Half life in New Zealand White rabbit eye administered as intracameral injection; type: ADME, tissue-based, Oryctolagus cuniculus; settings: topical or ocular
[2] = Drug level in New Zealand White rabbit eye aqueous humor at 25 ug/25 ul administered as intracameral injection measured after 15 mins; type: ADME, tissue-based, Oryctolagus cuniculus; settings: topical or ocular, read-out: Drug uptake
[3] = Drug level in New Zealand White rabbit eye aqueous humor at 25 ug/25 ul administered as intracameral injection measured after 30 mins; type: ADME, tissue-based, Oryctolagus cuniculus; settings: topical or ocular, read-out: Drug uptake
[4] = Drug level in New Zealand White rabbit eye aqueous humor at 25 ug/25 ul administered as intracameral injection measured after 45 mins; type: ADME, tissue-based, Oryctolagus cuniculus; settings: topical or ocular, read-out: Drug uptake
[5] = Drug level in New Zealand White rabbit eye aqueous humor at 25 ug/25 ul administered as intracameral injection measured after 60 mins; type: ADME, tissue-based, Oryctolagus cuniculus; settings: topical or ocular, read-out: Drug uptake
[6] = Drug level in New Zealand White rabbit eye aqueous humor at 25 ug/25 ul administered as intracameral injection measured after 90 mins; type: ADME, tissue-based, Oryctolagus cuniculus; settings: topical or ocular, read-out: Drug uptake
[7] = Drug level in New Zealand White rabbit eye aqueous humor at 25 ug/25 ul administered as intracameral injection measured after 120 mins; type: ADME, tissue-based, Oryctolagus cuniculus; settings: topical or ocular, read-out: Drug uptake
[8] = Drug level in New Zealand White rabbit eye aqueous humor at 25 ug/25 ul administered as intracameral injection measured after 150 mins; type: ADME, tissue-based, Oryctolagus cuniculus; settings: topical or ocular, read-out: Drug uptake
[9] = Drug level in New Zealand White rabbit eye aqueous humor at 25 ug/25 ul administered as intracameral injection measured after 180 mins; type: ADME, tissue-based, Oryctolagus cuniculus; settings: topical or ocular, read-out: Drug uptake
[10] = Half life in human eye administered as intracameral injection; type: ADME, tissue-based
[11] = Half life in human serum; type: ADME, cell-free
[12] = Half life in rabbit serum; type: ADME, cell-free, Oryctolagus cuniculus
[13] = Half life in New Zealand White rabbit eye aqueous humor at 25 ug/25 ul administered as intracameral injection; type: ADME, tissue-based, Oryctolagus cuniculus, Aqueous humor of eyeball; settings: topical or ocular

For `NCC[C@H](O)C(=O)N[C@@H]1C[C@H](N)[C@@H](O[C@H]2O[C@H](CN)[C@@H](O)[C@H](O)[C@H]2O)[C@H](O)[C@H]1O[C@H]1O[C@H](CO)[C@@H](O)[C@H](N)[C@H]1O` [AMIKACIN], the half-life [1] was 0.58 h.
Compound `C[C@@H](c1ncncc1F)[C@](O)(Cn1cncn1)c1ccc(F)cc1F` [VORICONAZOLE] has a concentration at 0.25 h [2] of 25400 ng/mL, a concentration at 0.5 h [3] of 13500 ng/mL and a concentration at 0.75 h [4] of 7730 ng/mL. It also gave a concentration at 1 h [5] of 5100 ng/mL, a concentration at 1.5 h [6] of 2670 ng/mL and a concentration at 2 h [7] of 1400 ng/mL. For the same compound, the concentration at 2.5 h [8] was 390 ng/mL, the concentration at 3 h [9] was 150 ng/mL and the half-life ([10]; eye, topical or ocular) was 3.27 h. It also gave a half-life [11] of 6.5 h, a half-life [12] of 2.5 h and a half-life [13] of 0.367 h.
For GENTAMICIN, the t1/2 ([10]; topical_or_ocular) was 0.85 h.
